The record followed here is ChEMBL document CHEMBL1149997, “Anti-HIV activity of quassinoids” (Bioorg Med Chem Lett, 1996).

In data set [1] the test system is H9. Nature of the data set: Cytotoxicity against H9 lymphocytic cells. Format: functional, cell-based. The following applies: Homo sapiens.
Data set [2] relates to Human immunodeficiency virus 1. Nature of the data set: Inhibition of HIV-1 replication in H9 lymphocytic cells. Format: functional, organism-based. As to conditions: Human immunodeficiency virus 1, H9; call rule not given here.
Data set [3] in a line: Therapeutic index expressed as the ratio of IC50 to EC50. As to conditions: read-out: Therapeutic index.
In data set [4] the test system is H9. Nature of the data set: Compound was tested for inhibitory activity against HIV replication in H9 lymphocytic cells; Toxic at all concentrations. Format: functional, cell-based, Homo sapiens.
For data set [5], the system named is H9. Nature of the data set: Compound was tested for cytotoxicity against H9 lymphocytic cells; Toxic at all concentrations. Format: functional, cell-based, Homo sapiens.
Data set [6] relates to H9. In words: Compound was tested for inhibitory activity against HIV replication in H9 lymphocytic cells; No effect. Format: functional, cell-based, Homo sapiens.
Data set [7] is described as follows: Therapeutic index expressed as the ratio of IC50 to EC50; No effect.

SMILES strings stand for the structures. pEC50, pIC50: −log10 of the molar value.

In turn, `CC(=O)O[C@@H]1C(=O)[C@H](C)[C@@H]2CC(=O)O[C@@H]3C[C@H]4[C@H](C)CC(O)C(=O)[C@]4(C)[C@@H]1[C@@]32C` (some centres not stated) showed a pIC50 in data set [1] of less than 3.61. This molecule also had a pEC50 in data set [2] of 3.61. In addition, in data set [3], the selectivity ratio is greater than 1.
Taken in the same sequence, the figures for `CC1=CC(=O)[C@@H](O)[C@@]2(C)C1C[C@H]1OC(=O)C[C@H]3[C@H](C)[C@H](O)C(=O)[C@@H]2[C@@]13CO` (some centres not stated) were less than 3.58, 4.97 and greater than 25.
Turning to `C=C1[C@@H](O)[C@]2(O)OC[C@@]34[C@H]1[C@@H](OC(=O)C(C)(O)CC)C(=O)O[C@@H]3C[C@H]1C(C)=CC(=O)[C@@H](O)[C@]1(C)[C@@H]24` (some centres not stated), in data set [4], the EC50 result is given as “Toxic at all concentrations”. Further, in data set [5], the IC50 result was “Toxic at all concentrations”.
The molecule `COC(=O)C(C)[C@@H]1CC(=O)O[C@@H]2C[C@H]3C(C)=CC(=O)[C@@H](O)[C@]3(C)[C@H]3C(=O)OC[C@]321` (some centres not stated) [AILANTINOL A] had a pIC50 in data set [1] of less than 3.61. The pEC50 in data set [2] is 4.52. The selectivity ratio in data set [3] is greater than 8.2.
Taken in the same sequence, the figures for `C[C@@H]1C[C@H](O)C(=O)[C@]2(C)[C@H]3[C@H](O)C(=O)[C@H](C)[C@@H]4CC(=O)O[C@H](C[C@@H]12)[C@]34C` [AMAROLIDE] were less than 3.56, 3.75 and greater than 1.5.
On to `COC(=O)[C@@]12OC[C@]34[C@H]([C@@H](O)[C@@H]1O)[C@@]1(C)C=C(O[C@@H]5O[C@H](CO)[C@@H](O)[C@H](O)[C@H]5O)C(=O)[C@@H](C)[C@@H]1C[C@H]3OC(=O)[C@H](OC(=O)C=C(C)C)[C@@H]24` [BRUCEOSIDE A], for which the pIC50 in data set [1] was 4.54. In addition, in data set [2], the pEC50 was 4.54. Moreover, the selectivity ratio in data set [3] was 1.
As to `COC(=O)[C@@]12OC[C@]34[C@H](OC(=O)C[C@@H]13)[C@H](OC(=O)C=C(C)C)[C@H]1C(C)=C(O[C@@H]3O[C@H](CO)[C@@H](O)[C@H](O)[C@H]3O)C(=O)C[C@]1(C)[C@H]4[C@@H](O)[C@@H]2O` [BRUCEOSIDE C], the EC50 result in data set [6] was “Not Active”. The molecule further gave a pIC50 in data set [1] of 4.36. Also, the Therapeutic index entry in data set [7] was “Not Active”.
Take `CC(C)=CC(=O)O[C@H]1C(=O)O[C@@H]2C[C@H]3[C@H](C)C(=O)C(O[C@@H]4O[C@H](CO)[C@@H](O)[C@H](O)[C@H]4O)=C[C@]3(C)[C@H]3[C@@H](O)[C@H](O)[C@]4(C(=O)O)OC[C@]32[C@@H]14` [BRUCEOSIDE D]: in data set [6], the EC50 result was “Not Active”. In addition, the pIC50 in data set [1] is 4.28. Moreover, in data set [7], the Therapeutic index entry is “Not Active”.
For the molecule `CC(C)CC(=O)O[C@H]1C(=O)O[C@@H]2C[C@H]3[C@H](C)C(=O)C(O[C@@H]4O[C@H](CO)[C@@H](O)[C@H](O)[C@H]4O)=C[C@]3(C)[C@H]3[C@@H](O)[C@H](O)[C@]4(C(=O)O)OC[C@]32[C@@H]14` [BRUCEOSIDE E], the pIC50 in data set [1] is 4.23. Further, the pEC50 in data set [2] is 4.13. Also, the selectivity ratio in data set [3] was determined as 0.8.
Taken in the same sequence, the figures for `COC(=O)[C@]12OC[C@]34[C@H]([C@@H](O)[C@@H]1O)[C@@]1(C)C(=O)C(O[C@@H]5O[C@H](CO)[C@@H](O)[C@H](O)[C@H]5O)=C[C@@H](C)[C@@H]1C[C@H]3OC(=O)[C@H](OC(=O)/C=C(\C)C(C)(C)OC(C)=O)[C@@H]24` [Bruceantinoside C] were 4.59, 4.34 and 0.6.
Turning to `COC(=O)[C@]12OC[C@]34[C@H]([C@@H](O)[C@@H]1O)[C@@]1(C)C=C(O[C@@H]5O[C@H](CO)[C@@H](O)[C@H](O)[C@H]5O)C(=O)[C@@H](C)[C@@H]1C[C@H]3OC(=O)[C@H](OC(=O)/C=C(\C)C(C)C)[C@@H]24` [Bruceantinoside-A], in data set [6], the EC50 result is on record as “Not Active”. This molecule also had a pIC50 in data set [1] of 5.40. In data set [7], the Therapeutic index result is given as “Not Active”.
`COC(=O)[C@]12OC[C@]34[C@H]([C@@H](O)[C@@H]1O)[C@@]1(C)CC(=O)C(O[C@@H]5O[C@H](CO)[C@@H](O)[C@H](O)[C@H]5O)=C(C)[C@@H]1C[C@H]3OC(=O)[C@H](OC(=O)C=C(C)C)[C@@H]24` [Bruceoside-B] gave a pIC50 in data set [1] of 5.52. In data set [2], this molecule gave a pEC50 of 5.52. In addition, the selectivity ratio in data set [3] amounted to 1.
Take `CC(=O)OC(C)(C)/C(C)=C/C(=O)O[C@H]1C(=O)O[C@@H]2C[C@H]3[C@H](C)C(=O)C(O[C@@H]4O[C@H](CO)[C@@H](O)[C@H](O)[C@H]4O)=C[C@]3(C)[C@H]3[C@@H](O)[C@H](O)[C@@]4(C(=O)O)OC[C@]32[C@@H]14` [Bruceoside-F]: in data set [1], the pIC50 was less than 3.88. The pEC50 in data set [2] was 3.95. Further, the selectivity ratio in data set [3] was greater than 1.2.
Taken in the same sequence, the figures for `CC1=CC(=O)[C@@H](O)[C@]2(C)[C@H]3[C@@]4(O)C(=O)OC[C@@]35[C@@H](C[C@@H]12)OC(=O)C[C@H]5[C@H]4C` [SHINJUDILACTONE] were less than 3.58, 4.37 and greater than 6.2.
Regarding `C=C1[C@H](O)[C@]2(O)OC[C@]34[C@H]2[C@@]2(C)[C@H](O)[C@@H](O)C=C(C)[C@@H]2C[C@H]3OC(=O)C[C@@H]14` [SHINJULACTONE A], the pIC50 in data set [1] is 5.30. In data set [2], the pEC50 was 5.30. Further, the selectivity ratio in data set [3] is 1.
In the case of `COC(=O)[C@]12OC[C@]34[C@H]([C@@H](O)[C@@H]1O)[C@@]1(C)C=C(O[C@@H]5O[C@H](CO)[C@@H](O)[C@H](O)[C@H]5O)C(=O)[C@@H](C)[C@@H]1C[C@H]3OC(=O)[C@H](OC(=O)/C=C(\C)C(C)(C)O)[C@@H]24` [YADANZIOSIDE C], the EC50 result in data set [6] is on record as “Not Active”. The molecule further gave a pIC50 in data set [1] of 4.26. Besides, the Therapeutic index result in data set [7] was “Not Active”.
The molecule `COC(=O)[C@]12OC[C@]34[C@H]([C@@H](O)[C@@H]1O)[C@@]1(C)C=C(O[C@@H]5O[C@H](CO)[C@@H](O)[C@H](O)[C@H]5O)C(=O)[C@@H](C)[C@@H]1C[C@H]3OC(=O)[C@H](OC(C)=O)[C@@H]24` [YADANZIOSIDE F] showed a pIC50 in data set [1] of 3.81. The pEC50 in data set [2] is 3.96. In data set [3], the selectivity ratio turned out to be 1.4.
`COC(=O)[C@@]12OC[C@]34[C@H]([C@@H](O)[C@@H]1O)[C@@]1(C)C=C(O[C@@H]5O[C@H](CO)[C@@H](O)[C@H](O)[C@H]5O)C(=O)[C@@H](C)[C@@H]1C[C@H]3OC(=O)[C@H](OC(=O)c1ccccc1)[C@@H]24` [YADANZIOSIDE-M]: the EC50 result in data set [6] is given as “Not Active”. In data set [1], this molecule had a pIC50 of 5.15. Further, the Therapeutic index entry in data set [7] is “Not Active”.
Consider `COC(=O)[C@]12OC[C@]34[C@H]([C@@H](O)[C@@H]1O)[C@@]1(C)C=C(O[C@@H]5O[C@H](CO)[C@@H](O)[C@H](O)[C@H]5O)C(=O)[C@@H](C)[C@@H]1C[C@H]3OC(=O)[C@H](OC(=O)CC(C)C)[C@@H]24` [Yadanzioside A], for which the pIC50 in data set [1] was 3.84. For the same molecule, in data set [2], the pEC50 is 3.96. In data set [3], the selectivity ratio came out at 1.3.
For `COC(=O)[C@]12OC[C@]34[C@H]([C@@H](O)[C@@H]1O)[C@@]1(C)CC(=O)C(O[C@@H]5O[C@H](CO)[C@@H](O)[C@H](O)[C@H]5O)=C(C)[C@@H]1C[C@H]3OC(=O)[C@H](OC(=O)CC(C)C)[C@@H]24` [Yadanzioside B] the same measures were 5.40, 5.30 and 0.8.
On to `COC(=O)[C@]12OC[C@]34[C@H]([C@@H](O)[C@@H]1O)[C@@]1(C)[C@H](O)[C@H](O[C@@H]5O[C@H](CO)[C@@H](O)[C@H](O)[C@H]5O)C=C(C)[C@@H]1C[C@H]3OC(=O)[C@H](OC(=O)C=C(C)C)[C@@H]24` [Yadanzioside E], for which, in data set [6], the EC50 result was “Not Active”. The pIC50 in data set [1] is 4.54. Besides, the Therapeutic index result in data set [7] is recorded as “Not Active”.
`COC(=O)[C@]12OC[C@]34[C@H]([C@@H](O)[C@@H]1O)[C@@]1(C)C=C(O[C@@H]5O[C@H](CO)[C@@H](O)[C@H](O)[C@H]5O)C(=O)[C@@H](C)[C@@H]1C[C@H]3OC(=O)[C@H](OC(=O)/C=C(\C)C(C)(C)OC(C)=O)[C@@H]24` [Yadanzioside G]: the pIC50 in data set [1] was 4.43. Besides, the pEC50 in data set [2] is 4.64. Moreover, the selectivity ratio in data set [3] worked out at 1.6.
For `COC(=O)[C@]12OC[C@]34[C@H]([C@@H](O)[C@@H]1O)[C@@]1(C)CC(=O)C(O[C@@H]5O[C@H](CO)[C@@H](O)[C@H](O)[C@H]5O)=C(C)[C@@H]1C[C@H]3OC(=O)[C@H](OC(=O)/C=C(\C)C(C)(C)O)[C@@H]24` [Yadanzioside L] the same measures were 5.00, 5.30 and 2.
In the case of `COC(=O)[C@]12OC[C@]34[C@H]([C@@H](O)[C@@H]1O)[C@@]1(C)C(=O)C(O[C@@H]5O[C@H](CO)[C@@H](O)[C@H](O)[C@H]5O)=C[C@@H](C)[C@@H]1C[C@H]3OC(=O)[C@H](OC(=O)/C=C(\C)C(C)C)[C@@H]24` [Yadanzioside N], the EC50 entry in data set [6] is on record as “Not Active”. In data set [1], this molecule gave a pIC50 of 4.31. In addition, the Therapeutic index result in data set [7] is “Not Active”.
Consider `COC(=O)[C@]12OC[C@]34[C@H]([C@@H](O)[C@@H]1O)[C@@]1(C)CC(=O)C(O[C@@H]5O[C@H](CO)[C@@H](O)[C@H](O)[C@H]5O)=C(C)[C@@H]1C[C@H]3OC(=O)[C@H](OC(=O)/C=C(\C)C(C)C)[C@@H]24` [Yadanzioside P], for which, in data set [1], the pIC50 is 4.74. Further, in data set [2], the pEC50 is 4.74. In addition, the selectivity ratio in data set [3] was 1.
On to `Nc1ccn([C@H]2CC[C@@H](CO)O2)c(=O)n1` [ZALCITABINE], for which the pIC50 in data set [1] was 3.30. This molecule also gave a pEC50 in data set [2] of 7.52. Moreover, the selectivity ratio in data set [3] was 16700.

For orientation: pIC50 means −log10 of the IC50, conventionally taken in molar units. High values mean a small IC50, low ones a large IC50. For orientation: pEC50 means −log10 of the EC50, conventionally taken in molar units.
